These results are taken from patent US20080207708A1, “Oxazole and Thiazole Compounds and Their Use in the Treatment of Pge2 Mediated Disorders” (GLAXO GROUP LIMITED, priority 2005, published 2008).

Bounds are passed on as bounds.

In the experiment the target is T1, EP1 receptors (Homo sapiens, UniProt P34995).
T1 sequence (P34995 1-402): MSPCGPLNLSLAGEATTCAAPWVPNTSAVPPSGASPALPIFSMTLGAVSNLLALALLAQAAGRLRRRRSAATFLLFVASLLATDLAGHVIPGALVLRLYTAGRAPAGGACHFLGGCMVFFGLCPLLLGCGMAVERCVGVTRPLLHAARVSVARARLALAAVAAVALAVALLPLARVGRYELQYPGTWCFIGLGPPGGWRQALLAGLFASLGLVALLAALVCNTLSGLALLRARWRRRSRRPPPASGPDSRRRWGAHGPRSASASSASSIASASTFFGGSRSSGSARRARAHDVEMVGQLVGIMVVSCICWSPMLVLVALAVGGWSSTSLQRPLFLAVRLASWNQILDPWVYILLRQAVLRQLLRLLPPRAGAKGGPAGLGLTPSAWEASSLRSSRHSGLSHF
Kind of experiment: Binding assay for the human prostanoid EP1 receptor (competition with [3H]-PGE2). Set-up: expressed in transfected cells; host or cells: CHO-K1 cells, membrane fraction. To be noted: [3H]-PGE2 competition; averages of a number of experiments; read-out: pIC50 value, binding assay for the human prostanoid EP1 receptor (converted). The protocol: Competition assay using [^3H]-PGE2.
Compound potencies are determined using a radioligand binding assay. In this assay compound potencies are determined from their ability to compete with tritiated prostaglandin E2 ([^3H]-PGE2) for binding to the human EP1 receptor.
This assay utilises Chinese hamster ovary-K1 (CHO-K1) cells into which a stable vector containing the EP1 cDNA has previously been transfected. Cells are cultured in suitable flasks containing culture medium such as DMEM:F-12 supplemented with 10% v/v foetal calf serum, 2 mM L-glutamine, 0.25 mg/ml geneticin, 10 μg/ml puromycin and 10 μM indomethacin.
Cells are detached from the culture flasks by incubation in calcium and magnesium free phosphate buffered saline containing 1 mM disodium ethylenediaminetetraacetic acid (Na2EDTA) and 10 μM indomethacin for 5 min. The cells are isolated by centrifugation at 250×g for 5mins and suspended in an ice cold buffer such as 50 mM Tris, 1 mM Na2EDTA, 140 mM NaCl, 10 μM indomethacin (pH 7.4). The cells are homogenised using a Polytron tissue disrupter (2×10 s burst at full setting), centrifuged at 48,000×g for 20mins and the pellet containing the membrane fraction is washed (optional) three times by suspension and centrifugation at 48,000×g for 20mins. The final membrane pellet is suspended in an assay buffer such as 10 mM 2-[N-morpholino]ethanesulphonic acid, 1 mM Na2EDTA, 10 mM MgCl2 (pH 6). Aliquots are frozen at […] until required.
For the binding assay the cell membranes, competing compounds and [^3H]-PGE2 (3 nM final assay concentration) are incubated in a final volume of 100 μl for 30 min at 30° C. All reagents are prepared in assay buffer. Reactions are terminated by rapid vacuum filtration over GF/B filters using a Brandell cell harvester. The filters are washed with ice cold assay buffer, dried and the radioactivity retained on the filters is measured by liquid scintillation counting in Packard TopCount scintillation counter.
The data are analysed using non linear curve fitting techniques to determine the concentration of compound producing 50% inhibition of specific binding (IC50).
Take `O=C(O)Cc1csc(-c2cc(Cl)ccc2OCc2c(F)cc(F)cc2F)n1` [Example 64, Sodium [2-(5-chloro-2-{[(2,4,6-trifluorophenyl)methyl]oxy}phenyl)-1,3-thiazol-4-yl]acetate]: the IC50 is not above 1000 nM.
Next, `O=C(O)Cc1csc(-c2cc(Cl)ccc2OCc2ccc(Cl)cc2F)n1` [Example 65, Sodium [2-(5-chloro-2-{[(4-chloro-2-fluorophenyl)methyl]oxy}phenyl)-1,3-thiazol-4-yl]acetate]: not above 31.6 nM; `O=C(O)Cc1csc(-c2cc(Cl)ccc2OCc2ccc(F)cc2Cl)n1` [Example 66, Sodium [2-(5-chloro-2-{[(2-chloro-4-fluorophenyl)methyl]oxy}phenyl)-1,3-thiazol-4-yl]acetate]: not above 1000 nM; `O=C(O)Cc1csc(-c2cc(Cl)ccc2OCc2c(F)ccc(F)c2F)n1` [Example 67, Sodium [2-(5-chloro-2-{[(2,3,6-trifluorophenyl)methyl]oxy}phenyl)-1,3-thiazol-4-yl]acetate]: not above 1000 nM.
Next, `O=C(O)Cc1csc(-c2cc(Cl)ccc2OCc2cc(F)c(F)cc2F)n1` [Example 68, Sodium [2-(5-chloro-2-{[(2,4,5-trifluorophenyl)methyl]oxy}phenyl)-1,3-thiazol-4-yl]acetate]: not above 1000 nM; `O=C(O)Cc1csc(-c2cc(Cl)ccc2OCc2cc(F)c(F)c(F)c2)n1` [Example 69, Sodium [2-(5-chloro-2-{[(3,4,5-trifluorophenyl)methyl]oxy}phenyl)-1,3-thiazol-4-yl]acetate]: not above 1000 nM.
`O=C(O)Cc1csc(-c2cc(Cl)ccc2OCc2ccccc2Cl)n1` [Example 70, Sodium [2-(5-chloro-2-{[(2-chlorophenyl)methyl]oxy}phenyl)-1,3-thiazol-4-yl]acetate]: the IC50 was not above 1000 nM.
Next, `O=C(O)Cc1csc(-c2cc(Cl)ccc2OCc2ccc(Cl)cc2)n1` [Example 71, Sodium [2-(5-chloro-2-{[(4-chlorophenyl)methyl]oxy}phenyl)-1,3-thiazol-4-yl]acetate]: not above 31.6 nM; `O=C(O)Cc1csc(-c2cc(Cl)ccc2OCc2ccc(F)cc2)n1` [Example 72, Sodium [2-(5-chloro-2-{[(4-fluorophenyl)methyl]oxy}phenyl)-1,3-thiazol-4-yl]acetate]: not above 1000 nM.
Take `O=C(O)Cc1csc(-c2cc(Cl)ccc2OCc2ccccc2)n1` [Example 73, Sodium [2-{5-chloro-2-[(phenylmethyl)oxy]phenyl}-1,3-thiazol-4-yl)acetate]: the IC50 is not above 31.6 nM.
For the compound `O=C(O)c1nc(Cc2cc(Cl)ccc2OCc2ccc(F)cc2F)cs1` [Example 74, Sodium 4-[(5-chloro-2-{[(2,4-difluorophenyl)methyl]oxy}phenyl)methyl]-1,3-thiazole-2-carboxylate], the IC50 is not above 31.6 nM.
On to `O=C(O)c1csc(Nc2cc(Cl)ccc2OCc2ccccc2)n1` [Example 75, Sodium 2-({5-chloro-2-[(phenylmethyl)oxy]phenyl}amino)-1,3-thiazole-4-carboxylate], for which the IC50 was not above 1000 nM.
Turning to `O=C(O)c1nc(Cc2cc(Cl)ccc2OCc2ccccc2)cs1` [Example 76, Sodium 4-({5-chloro-2-[(phenylmethyl)oxy]phenyl}methyl)-1,3-thiazole-2-carboxylate], the IC50 is not above 31.6 nM.
Take `O=C(O)c1nc(Cc2cc(Cl)ccc2OCc2ccc(F)cc2)cs1` [Example 77, Sodium 4-[(5-chloro-2-{[(4-fluorophenyl)methyl]oxy}phenyl)methyl]-1,3-thiazole-2-carboxylate]: the IC50 was not above 31.6 nM.
As to `O=C(O)c1coc(Cc2cc(Cl)ccc2OCc2ccccc2)n1` [Example 78, Sodium 2-({5-chloro-2-[(phenylmethyl)oxy]phenyl}methyl)-1,3-oxazole-4-carboxylate], the IC50 is not above 31.6 nM.
Next, `CC(C)COc1ccc(Cl)cc1C(F)(F)c1nc(C(=O)O)cs1` [Example 82, Sodium 2-[{5-chloro-2-[(2-methylpropyl)oxy]phenyl}(difluoro)methyl]-1,3-thiazole-4-carboxylate]: not above 1000 nM.
